In PubChem BioAssay AID330 (DTP/NCI, 2004):
Several values for one entry are separate records, joined by “and”; a condition that tells them apart may be missing. Equal values may be shown once. Toxic doses and inconclusive results are not listed. The calls were made as follows: active = survival T/C of 150% or more; inactive = T/C below 125% in these data.

System: P388 leukemia ip, CD2F1 mice, survival T/C
Experiment: NCI In Vivo Anticancer Drug Screen. Data for tumor model P388 Leukemia (intraperitoneal) in CD2F1 (CDF1) mice
Conditions: endpoint: median survival time, higher = longer survival
How it was run: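 Mice carrying the transplanted tumor received test compound or vehicle. Survival was recorded in each group, and the value is the treated-group measurement divided by that of the vehicle-treated control group.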

[1] = dose: 50.0 mg/kg/injection, schedule: Q01DX009 (ip), vehicle: Klucel (hydroxypropylcellulose) (HPC)
[2] = dose: 100.0 mg/kg/injection, schedule: Q01DX009 (ip), vehicle: Klucel (hydroxypropylcellulose) (HPC)
[3] = dose: 50.0 mg/kg/injection, schedule: Q01DX009 (ip), vehicle: saline
[4] = dose: 100.0 mg/kg/injection, schedule: Q01DX009 (ip), vehicle: saline
[5] = dose: 50.0 mg/kg/injection, schedule: Q01DX009 (ip), vehicle: saline with Tween-80
[6] = dose: 100.0 mg/kg/injection, schedule: Q01DX009 (ip), vehicle: saline with Tween-80
[7] = dose: 200.0 mg/kg/injection, schedule: Q01DX009 (ip), vehicle: saline with Tween-80
[8] = dose: 400.0 mg/kg/injection, schedule: Q01DX009 (ip), vehicle: saline with Tween-80
[9] = dose: 50.0 mg/kg/injection, schedule: Q01DX005 (ip), vehicle: Klucel (hydroxypropylcellulose) (HPC)
[10] = dose: 100.0 mg/kg/injection, schedule: Q01DX005 (ip), vehicle: Klucel (hydroxypropylcellulose) (HPC)
[11] = dose: 200.0 mg/kg/injection, schedule: Q01DX005 (ip), vehicle: Klucel (hydroxypropylcellulose) (HPC)
[12] = dose: 50.0 mg/kg/injection, schedule: Q01DX005 (ip), vehicle: saline with Tween-80
[13] = dose: 100.0 mg/kg/injection, schedule: Q01DX005 (ip), vehicle: saline with Tween-80
[14] = dose: 200.0 mg/kg/injection, schedule: Q01DX005 (ip), vehicle: saline with Tween-80
[15] = dose: 200.0 mg/kg/injection, schedule: Q01DX009 (ip), vehicle: saline
[16] = dose: 200.0 mg/kg/injection, schedule: Q01DX009 (ip), vehicle: Klucel (hydroxypropylcellulose) (HPC)

Measured: T/C

CC(C)CCC(=O)c1ccoc1
inactive: dose: 0.46 mg/kg/injection, schedule: Q01DX005 (ip), vehicle: saline with Tween-80 103 % of control | dose: 0.93 mg/kg/injection, schedule: Q01DX005 (ip), vehicle: saline with Tween-80 97 % of control | dose: 1.87 mg/kg/injection, schedule: Q01DX005 (ip), vehicle: saline with Tween-80 97 % of control | dose: 3.75 mg/kg/injection, schedule: Q01DX005 (ip), vehicle: saline with Tween-80 89 % of control

Cc1ccc(N=CN(C)Sc2ccc(C(C)(C)C)cc2)c(C)c1
inactive: [1] 103 % of control | [2] 117 % of control

COC(=O)C1NC(C)(C(=O)OC)C2C(=O)NC(=O)C12 (stereo not given)
inactive: dose: 100.0 mg/kg/injection, schedule: Q04DX002 (ip), vehicle: Klucel (hydroxypropylcellulose) (HPC) 95 % of control | dose: 200.0 mg/kg/injection, schedule: Q04DX002 (ip), vehicle: Klucel (hydroxypropylcellulose) (HPC) 93 % of control | dose: 400.0 mg/kg/injection, schedule: Q04DX002 (ip), vehicle: Klucel (hydroxypropylcellulose) (HPC) 88 % of control

O=[N+]([O-])c1cccn2cnnc12
inactive: [3] 98 % of control | [4] 87 % of control

NC(Cc1c[nH]c2ccc([N+](=O)[O-])cc12)C(=O)O (stereo not given)
inactive: [5] 92 % of control | [6] 91 % of control | [7] 94 % of control | [8] 91 % of control

CCOC(=O)C(Cc1ccc(N(CCCl)CCCl)cc1)NC(=O)C(C)NC(C)=O (stereo not given)
inactive: dose: 5.0 mg/kg/injection, schedule: Q04DX003 (ip), vehicle: water 108 % of control | dose: 10.0 mg/kg/injection, schedule: Q04DX003 (ip), vehicle: water 111 % of control and 113 % of control | dose: 40.0 mg/kg/injection, schedule: Q04DX003 (ip), vehicle: water 122 % of control

CC(/C=N\Nc1ccc(Cl)c(Cl)c1)=N/NC(=O)C[n+]1ccccc1
inactive: dose: 25.0 mg/kg/injection, schedule: Q04DX002 (ip), vehicle: saline 108 % of control | dose: 50.0 mg/kg/injection, schedule: Q04DX002 (ip), vehicle: saline 104 % of control | dose: 100.0 mg/kg/injection, schedule: Q04DX002 (ip), vehicle: saline 102 % of control and 92 % of control

CC(C)CC1NC(=O)C(CC(C)C)N(CO)C1=O (stereo not given)
inactive: [9] 97 % of control | [10] 99 % of control | [11] 95 % of control

COc1cc(O)c2c(=O)c3c(O)c(O)ccc3oc2c1
inactive: dose: 0.63 mg/kg/injection, schedule: Q01DX009 (ip), vehicle: saline 108 % of control | dose: 1.25 mg/kg/injection, schedule: Q01DX009 (ip), vehicle: saline 110 % of control | dose: 2.5 mg/kg/injection, schedule: Q01DX009 (ip), vehicle: saline 101 % of control | dose: 5.0 mg/kg/injection, schedule: Q01DX009 (ip), vehicle: saline 100 % of control

S
inactive: [6] 113 % of control | [7] 115 % of control | [8] 113 % of control

CS/C(N)=N\NC(=O)COc1ccc(Cl)cc1
inactive: [12] 100 % of control | [13] 106 % of control | [14] 100 % of control

CCC1=C(O)C(=O)C(C)(C)C1=O
inactive: dose: 50.0 mg/kg/injection, schedule: Q01DX005 (ip), vehicle: saline 99 % of control and 101 % of control | dose: 100.0 mg/kg/injection, schedule: Q01DX005 (ip), vehicle: saline 100 % of control and 96 % of control | dose: 200.0 mg/kg/injection, schedule: Q01DX005 (ip), vehicle: saline 90 % of control and 98 % of control

CC(=O)OC1OC(CS[As](C)C)C(OC(C)=O)C(OC(C)=O)C1OC(C)=O (stereo not given)
inactive: [3] 104 % of control | [4] 106 % of control | [15] 104 % of control

COC(=Nc1ccccc1)SSC(C)C
inactive: dose: 25.0 mg/kg/injection, schedule: Q01DX009 (ip), vehicle: saline with Tween-80 115 % of control | [5] 115 % of control

O=[N+]([O-])CC(OCCCCO)C(Cl)(Cl)Cl (stereo not given)
inactive: [5] 101 % of control | [6] 96 % of control | [7] 87 % of control

Cc1ccc(Cc2nnc(C)c3c(C)[nH]nc23)cc1
inactive: [1] 100 % of control | [2] 95 % of control | [16] 93 % of control

N#C/C(=N\O)C(N)=O
inactive: dose: 25.0 mg/kg/injection, schedule: Q01DX009 (ip), vehicle: saline 92 % of control | [3] 105 % of control | [4] 105 % of control | [15] 98 % of control

NC(N)=Nc1nc2ccccc2s1
inactive: dose: 12.5 mg/kg/injection, schedule: Q01DX009 (ip), vehicle: saline sonified 100 % of control | dose: 25.0 mg/kg/injection, schedule: Q01DX009 (ip), vehicle: saline sonified 100 % of control | dose: 50.0 mg/kg/injection, schedule: Q01DX009 (ip), vehicle: saline sonified 100 % of control

COc1ccc(-c2c(C#N)cnc(C)c2C)c(O)c1OC
inactive: dose: 25.0 mg/kg/injection, schedule: Q01DX009 (ip), vehicle: Klucel (hydroxypropylcellulose) (HPC) 96 % of control | [1] 92 % of control | [2] 96 % of control | [16] 90 % of control

CC(=O)Oc1n[nH]c(=O)n1-c1ccccc1
inactive: dose: 50.0 mg/kg/injection, schedule: Q01DX005 (ip), vehicle: Klucel + Tween-80 107 % of control | dose: 100.0 mg/kg/injection, schedule: Q01DX005 (ip), vehicle: Klucel + Tween-80 107 % of control | dose: 200.0 mg/kg/injection, schedule: Q01DX005 (ip), vehicle: Klucel + Tween-80 98 % of control

COc1ccc(C2NCc3c(sc4c3CCCC4)-n3cccc32)cc1 (stereo not given)
inactive: [12] 87 % of control | [13] 87 % of control | [14] 87 % of control

COC1=CC2CC(C#N)C2(OC)C=C1 (stereo not given)
inactive: dose: 60.0 mg/kg/injection, schedule: Q01DX005 (ip), vehicle: saline with Tween-80 97 % of control | dose: 120.0 mg/kg/injection, schedule: Q01DX005 (ip), vehicle: saline with Tween-80 99 % of control | dose: 240.0 mg/kg/injection, schedule: Q01DX005 (ip), vehicle: saline with Tween-80 98 % of control

COC(=O)CCSC(=O)NC1CCCCC1
inactive: [9] 102 % of control | [10] 107 % of control | [11] 102 % of control

C=C1C(=O)OC2/C=C(/C)CC/C=C(\C(=O)O)CC/C=C(\C)CCC12 (stereo not given)
inactive: dose: 100.0 mg/kg/injection, schedule: Q04DX003 (ip), vehicle: saline with Tween-80 113 % of control | dose: 200.0 mg/kg/injection, schedule: Q04DX003 (ip), vehicle: saline with Tween-80 110 % of control

C/C=C(\C)C(=O)N/N=C\c1cc(Cl)cc(Cl)c1O
inactive: dose: 12.5 mg/kg/injection, schedule: Q01DX009 (ip), vehicle: olive oil, sesame oil, peanut oil 106 % of control | dose: 25.0 mg/kg/injection, schedule: Q01DX009 (ip), vehicle: olive oil, sesame oil, peanut oil 98 % of control | dose: 50.0 mg/kg/injection, schedule: Q01DX009 (ip), vehicle: olive oil, sesame oil, peanut oil 106 % of control | dose: 100.0 mg/kg/injection, schedule: Q01DX009 (ip), vehicle: olive oil, sesame oil, peanut oil 102 % of control | dose: 200.0 mg/kg/injection, schedule: Q01DX009 (ip), vehicle: olive oil, sesame oil, peanut oil 96 % of control | dose: 400.0 mg/kg/injection, schedule: Q01DX009 (ip), vehicle: olive oil, sesame oil, peanut oil 93 % of control

Nc1c(-c2noc(=O)[nH]2)ncn1Cc1ccccc1
inactive: dose: 100.0 mg/kg/injection, schedule: Q01DX001 (ip), vehicle: Klucel (hydroxypropylcellulose) (HPC) 97 % of control | dose: 200.0 mg/kg/injection, schedule: Q01DX001 (ip), vehicle: Klucel (hydroxypropylcellulose) (HPC) 92 % of control | dose: 400.0 mg/kg/injection, schedule: Q01DX001 (ip), vehicle: Klucel (hydroxypropylcellulose) (HPC) 99 % of control

Cc1ncc(CO)n1Cc1ccc(Cl)cc1
inactive: [1] 104 % of control | [2] 99 % of control | [16] 94 % of control
